Laboratory results as given in patent US20110190300A1, “AMIDE COMPOUNDS AND THE USE THEREOF” (priority 2007, published 2011).

Tests used:
[1] = target: T1, N-type calcium channel (NTCC) (Homo sapiens, UniProt Q00975); experiment: FLIPR calcium mobilization assay for N-type calcium channel; type: cell-based; conditions: calcium mobilization in vitro assay; differentiated IMR32 cells, 5 μM nitrendipine, 90 mM KCl
T1 construct: host or cells: IMR32 cells differentiated with dibutyryl cyclic AMP and bromodeoxyuridine
Description: Cell maintenance and differentiation. Unless noted otherwise, cell culture reagents were purchased from Mediatech of Herndon, Md. IMR32 cells (American Type Culture Collection, ATCC, Manassas, Va.) were routinely cultured in growth medium consisting of minimum essential medium containing 10% fetal bovine serum (FBS, Hyclone, Logan, Utah), 100 U/mL penicillin, 100 μg/mL streptomycin, 2 mM L-glutamine, 1 mM sodium pyruvate, and 1× MEM non-essential amino acids. 80-90% confluent flasks of cells were differentiated using the following differentiation medium: Growth medium plus 1 mM dibutyryl cyclic AMP (Sigma, St. Louis, Mo.), and 2.5 μM bromodeoxyuridine (Sigma). Cells were differentiated for 8 days by replacing differentiation medium every 2-3 days.
FLIPR Calcium Mobilization Assay for N-type Calcium Channel. One day prior to performing this assay, differentiated IMR32 cells were treated with 1× CellStripper, and seeded on poly-D-lysine-coated 96-well clear-bottom black plates (Becton Dickinson, Franklin Lakes, N.J.) at 200,000 cells/well. On the day of the assay, the cell plates were washed with IMR32 buffer (127 mM NaCl, 1 mM KCl, 2 mM MgCl2, 700 μM NaH2PO4, 5 mM CaCl2, 5 mM NaHCO3, 8 mM HEPES, 10 mM glucose, pH 7.4), then pre-stimulated with KCl and loaded as follows: 0.05 mL of IMR32 buffer, 0.05 mL of each compound tested diluted in IMR32 buffer containing 20 μM nitrendipine (Sigma), and 0.1 mL KCl dissolved in IMR32 buffer, plus Fluo-4 were added (3 μM final concentration, Molecular Probes, Eugene, Oreg.). Final test compound concentrations ranged from about 846 pM to about 17 μM, final nitrendipine concentration was 5 μM, and final KCl concentration was 90 mM. After 1 hour, the cells were washed twice with 0.05 mL of each compound tested in nitrendipine-containing IMR32 buffer (no KCl or Fluo-4), and then replaced with 0.1 mL of each compound tested in nitrendipine-containing IMR32 buffer. Plates were then transferred to a Fluorimetric Imaging Plate Reader (FLIPR^96, Molecular Devices, Inc., Sunnyvale, Calif.) for assay. The FLIPR measured basal Fluo-4 fluorescence for 315 seconds (i.e., 5 minutes and 15 seconds), then added 0.1 mL KCl agonist dissolved in IMR32 buffer and measured fluorescence for another 45 seconds. Final test compound concentrations on the cells after FLIPR read ranged from about 846 pM to about 17 μM, final nitrendipine concentration was 5 μM, and final KCl concentration was 90 mM. Data were collected over the entire time course and analyzed using Excel, Graph Pad Prism (version 3.02, Graph Pad, San Diego, Calif.), or an in-house non-linear regression analysis software.

[2] = target: T2, L-type calcium channel (LTCC) (Rattus norvegicus, UniProt P22002); experiment: FLIPR calcium mobilization assay for L-type calcium channel; type: cell-based; conditions: calcium mobilization in vitro assay; HEK293 cells stably expressing recombinant rat LTCC subunits (α1c, α2δ, β1), 90 mM KCl
T2 construct: expressed in transfected cells; host or cells: HEK293, stably transfected (pcDNA6.2DEST α1c, pcDNA3.2DEST β1, pcDNA3.1-Zeo α2δ)
Description: Recombinant human embryonal kidney cells (HEK293, ATCC) stably transfected with either N-type calcium channel (NTCC) subunits (α1b, α2δ, and β3) or L-type calcium channel (LTCC) subunits (α1c, α2δ, and β1) were routinely cultured in growth medium consisting of Dulbecco's Modified Eagles Medium containing 10% FBS, 100 U/mL penicillin, 100 μg/mL streptomycin, 4 mM L-glutamine, 500 μg/mL geneticin (G418), 20 μg/mL Blasticidin S (InVivogen, San Diego, Calif.) and 500 μg/mL zeocin (InVivogen).
FLIPR Calcium Mobilization Assay for L-type Calcium Channel. One day prior to performing this assay, HEK293 cells stably expressing recombinant rat L-type calcium channel (LTCC) subunits (α1c, α2δ, and β1) were trypsinized, then seeded on poly-D-lysine-coated 96-well clear-bottom black plates (Becton Dickinson, Franklin Lakes, N.J.) at 75,000 cells/well. On the day of the assay, the plates were washed with LTCC wash buffer (127 mM NaCl, 2 mM MgCl2, 700 μM NaH2PO4, 5 mM CaCl2, 5 mM NaHCO3, 8 mM HEPES, 10 mM glucose, pH 7.4), then loaded with 0.1 mL of LTCC wash buffer containing Fluo-4 (3 μM final concentration, Molecular Probes, Eugene, Oreg.). After 1 hour, the cells were washed with 0.1 mL LTCC wash buffer and resuspended in 0.05 mL LTCC assay buffer (same composition as LTCC wash buffer). Plates were then transferred to a FLIPR^96 for assay. The FLIPR measured basal Fluo-4 fluorescence for 15 seconds, then added 0.05 mL of each compound tested diluted in LTCC assay buffer at final concentrations ranging from about 846 pM to about 17 μM. Fluo-4 fluorescence was then measured for 5 minutes. 0.1 mL KCl agonist dissolved in LTCC assay buffer was then added to the cells to produce a final concentration of 90 mM KCl, and fluorescence was measured for another 45 seconds. Data were collected over the entire time course and analyzed using Excel, Graph Pad Prism, or an in-house regression analysis software.

T1 sequence (Q00975 whole entry): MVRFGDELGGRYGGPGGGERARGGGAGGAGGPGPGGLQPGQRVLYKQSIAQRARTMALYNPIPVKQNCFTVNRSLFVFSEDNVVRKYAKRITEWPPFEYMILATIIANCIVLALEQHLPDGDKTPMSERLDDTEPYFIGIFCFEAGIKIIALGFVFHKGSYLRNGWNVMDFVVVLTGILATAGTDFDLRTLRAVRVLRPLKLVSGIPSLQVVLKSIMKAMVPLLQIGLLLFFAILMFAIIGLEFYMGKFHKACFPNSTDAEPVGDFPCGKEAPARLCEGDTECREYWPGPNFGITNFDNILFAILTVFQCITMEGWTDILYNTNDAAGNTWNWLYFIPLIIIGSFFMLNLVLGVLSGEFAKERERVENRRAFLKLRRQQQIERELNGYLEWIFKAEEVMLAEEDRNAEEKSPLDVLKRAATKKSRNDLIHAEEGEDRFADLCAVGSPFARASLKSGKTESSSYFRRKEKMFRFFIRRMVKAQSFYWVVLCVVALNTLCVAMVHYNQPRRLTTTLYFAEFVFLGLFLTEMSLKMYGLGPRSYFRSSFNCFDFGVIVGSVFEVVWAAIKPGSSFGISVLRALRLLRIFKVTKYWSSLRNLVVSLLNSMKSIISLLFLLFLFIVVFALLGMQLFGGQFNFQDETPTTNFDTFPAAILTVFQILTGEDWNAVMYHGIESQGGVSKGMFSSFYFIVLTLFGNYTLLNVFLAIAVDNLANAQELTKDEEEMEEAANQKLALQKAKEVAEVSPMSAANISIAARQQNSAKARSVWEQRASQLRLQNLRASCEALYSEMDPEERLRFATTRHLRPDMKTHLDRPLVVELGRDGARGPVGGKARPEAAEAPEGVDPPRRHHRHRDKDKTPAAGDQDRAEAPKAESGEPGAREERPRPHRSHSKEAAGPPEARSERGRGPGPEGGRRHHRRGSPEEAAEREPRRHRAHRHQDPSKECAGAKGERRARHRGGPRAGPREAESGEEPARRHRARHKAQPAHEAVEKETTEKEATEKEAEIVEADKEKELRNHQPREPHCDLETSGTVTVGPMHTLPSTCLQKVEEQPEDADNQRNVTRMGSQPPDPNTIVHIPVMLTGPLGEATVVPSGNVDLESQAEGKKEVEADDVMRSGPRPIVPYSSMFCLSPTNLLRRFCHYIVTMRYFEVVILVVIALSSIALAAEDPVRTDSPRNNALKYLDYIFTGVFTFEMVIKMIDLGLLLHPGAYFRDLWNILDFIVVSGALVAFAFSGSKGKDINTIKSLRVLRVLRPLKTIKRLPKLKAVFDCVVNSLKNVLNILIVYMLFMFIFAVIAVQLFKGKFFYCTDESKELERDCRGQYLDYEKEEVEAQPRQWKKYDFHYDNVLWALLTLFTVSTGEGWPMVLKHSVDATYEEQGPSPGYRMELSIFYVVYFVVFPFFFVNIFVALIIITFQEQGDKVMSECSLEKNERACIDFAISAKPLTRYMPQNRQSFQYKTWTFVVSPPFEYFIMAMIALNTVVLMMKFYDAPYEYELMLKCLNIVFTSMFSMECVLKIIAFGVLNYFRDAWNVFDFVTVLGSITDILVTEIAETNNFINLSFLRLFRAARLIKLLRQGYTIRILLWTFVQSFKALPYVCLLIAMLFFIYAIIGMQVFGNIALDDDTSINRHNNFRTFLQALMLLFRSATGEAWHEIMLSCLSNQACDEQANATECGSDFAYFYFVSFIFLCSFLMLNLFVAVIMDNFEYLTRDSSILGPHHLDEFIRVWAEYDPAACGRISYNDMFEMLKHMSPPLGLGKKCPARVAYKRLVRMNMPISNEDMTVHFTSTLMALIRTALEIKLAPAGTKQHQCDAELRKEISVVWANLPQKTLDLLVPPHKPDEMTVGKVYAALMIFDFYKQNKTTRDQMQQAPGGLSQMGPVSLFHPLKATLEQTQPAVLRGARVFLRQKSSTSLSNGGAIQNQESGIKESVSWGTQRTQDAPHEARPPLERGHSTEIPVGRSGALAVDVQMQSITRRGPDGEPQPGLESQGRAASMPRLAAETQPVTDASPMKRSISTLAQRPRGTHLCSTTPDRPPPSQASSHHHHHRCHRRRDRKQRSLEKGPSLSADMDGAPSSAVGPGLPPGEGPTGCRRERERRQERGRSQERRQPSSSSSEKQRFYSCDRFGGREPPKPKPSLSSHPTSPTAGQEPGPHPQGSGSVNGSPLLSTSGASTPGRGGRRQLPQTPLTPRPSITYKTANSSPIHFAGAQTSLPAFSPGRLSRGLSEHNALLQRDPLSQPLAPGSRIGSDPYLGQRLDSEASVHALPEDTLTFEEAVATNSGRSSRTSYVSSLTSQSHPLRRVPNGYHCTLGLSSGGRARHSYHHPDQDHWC
T1 sequence (P54289 25-956 partner limits assumed): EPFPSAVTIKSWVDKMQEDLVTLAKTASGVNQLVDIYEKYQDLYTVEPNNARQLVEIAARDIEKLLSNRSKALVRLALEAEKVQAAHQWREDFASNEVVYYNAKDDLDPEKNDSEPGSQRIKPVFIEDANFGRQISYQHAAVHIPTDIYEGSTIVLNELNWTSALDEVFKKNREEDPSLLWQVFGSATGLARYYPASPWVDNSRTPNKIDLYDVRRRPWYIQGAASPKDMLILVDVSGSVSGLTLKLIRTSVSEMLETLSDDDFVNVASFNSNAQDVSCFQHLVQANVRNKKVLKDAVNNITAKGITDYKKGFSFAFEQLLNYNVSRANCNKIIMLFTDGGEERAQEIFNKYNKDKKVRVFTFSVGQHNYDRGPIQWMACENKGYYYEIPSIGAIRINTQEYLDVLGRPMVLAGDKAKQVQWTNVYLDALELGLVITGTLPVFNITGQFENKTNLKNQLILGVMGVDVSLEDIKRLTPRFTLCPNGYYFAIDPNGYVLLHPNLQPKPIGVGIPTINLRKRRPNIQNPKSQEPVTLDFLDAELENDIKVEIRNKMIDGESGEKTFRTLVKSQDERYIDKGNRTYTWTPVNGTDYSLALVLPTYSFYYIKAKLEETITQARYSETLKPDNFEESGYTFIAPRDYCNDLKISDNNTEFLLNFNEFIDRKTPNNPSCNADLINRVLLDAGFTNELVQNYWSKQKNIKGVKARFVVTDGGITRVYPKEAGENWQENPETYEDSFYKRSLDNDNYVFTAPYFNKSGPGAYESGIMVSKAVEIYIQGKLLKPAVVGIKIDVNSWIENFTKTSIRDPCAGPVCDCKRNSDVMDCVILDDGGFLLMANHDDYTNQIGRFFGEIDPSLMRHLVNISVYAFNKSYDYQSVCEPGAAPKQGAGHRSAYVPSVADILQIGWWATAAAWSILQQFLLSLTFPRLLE
T1 sequence (P54289 957-1103 partner limits assumed): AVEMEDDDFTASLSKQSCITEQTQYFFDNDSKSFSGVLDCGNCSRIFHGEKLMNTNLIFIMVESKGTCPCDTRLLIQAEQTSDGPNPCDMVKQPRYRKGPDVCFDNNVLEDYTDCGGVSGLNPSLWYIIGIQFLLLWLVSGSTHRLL
T1 sequence (P54284 whole entry partner): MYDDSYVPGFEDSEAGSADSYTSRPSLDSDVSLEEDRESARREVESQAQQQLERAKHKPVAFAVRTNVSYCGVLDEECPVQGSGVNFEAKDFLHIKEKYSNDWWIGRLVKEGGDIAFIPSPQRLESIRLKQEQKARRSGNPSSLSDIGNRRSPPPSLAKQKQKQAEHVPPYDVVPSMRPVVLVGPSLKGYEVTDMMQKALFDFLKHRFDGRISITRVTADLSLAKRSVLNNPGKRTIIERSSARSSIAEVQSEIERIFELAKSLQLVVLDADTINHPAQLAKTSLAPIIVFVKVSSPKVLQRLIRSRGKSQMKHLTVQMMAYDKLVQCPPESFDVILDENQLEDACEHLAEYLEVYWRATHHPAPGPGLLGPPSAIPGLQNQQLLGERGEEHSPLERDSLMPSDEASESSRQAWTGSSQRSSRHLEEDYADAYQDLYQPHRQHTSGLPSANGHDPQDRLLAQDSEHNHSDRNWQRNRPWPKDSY

Row | Compound | IC50 [1] [nM] | IC50 [2] [nM]
1 | O=C(Nc1ccc(F)cc1)ON=C1CCN(C(=O)Oc2cccc(C(F)(F)F)c2)CC1 [Example 131, 3-(trifluoromethyl)phenyl 4-(4-fluorophenylcarbamoyloxyimino)piperidine-1-carboxylate] | 1800 | 
2 | O=C(CON=C1CCN(S(=O)(=O)c2ccc(OC(F)(F)F)cc2)CC1)NC1CCCCC1 [Example 100, N-Cyclohexyl-2-[1-(4-trifluoromethoxybenzenesulfonyl)piperidin-4-ylideneaminooxy]acetamide] | 410 | > 20000
3 | O=C(Nc1ccc(F)cc1)ON=C1CCN(S(=O)(=O)c2cccc(C(F)(F)F)c2)CC1 [Example 104, 1-(3-(trifluoromethyl)phenylsulfonyl)piperidin-4-one O-4-fluorophenylcarbamoyl oxime] | 240 | > 20000
4 | CC(C)CNC(=O)CON=C1CCN(S(=O)(=O)c2ccc(OC(F)(F)F)cc2)CC1 [Example 99, N-Isobutyl-2-[1-(4-trifluoromethoxybenzenesulfonyl)piperidin-4-ylideneaminooxy]acetamide] | 300 | > 20000

More lines, now with the values ahead:

Row | IC50 [1] [nM] | IC50 [2] [nM] | Compound
5 | 210 | > 20000 | CCCNC(=O)CON=C1CCN(S(=O)(=O)c2ccc(OC(F)(F)F)cc2)CC1 [Example 102, N-Propyl-2-[1-(4-trifluoromethoxybenzenesulfonyl)piperidin-4-ylideneaminooxy]acetamide]
6 | 1100 | > 20000 | O=C(CON=C1CCN(S(=O)(=O)c2ccc(OC(F)(F)F)cc2)CC1)NCc1ccccc1 [Example 98, N-Benzyl-2-[1-(4-trifluoromethoxybenzenesulfonyl)piperidin-4-ylideneaminooxy]acetamide]
7 | 1200 | 8500 | CN(C(=O)CON=C1CCN(S(=O)(=O)c2ccc(OC(F)(F)F)cc2)CC1)c1ccccc1 [Example 3, N-Methyl-N-phenyl-2-[1-(4-trifluoromethoxybenzenesulfonyl)piperidin-4-ylideneaminooxy]acetamide]
8 | 420 | > 20000 | O=C(CON=C1CCN(S(=O)(=O)c2ccc(OC(F)(F)F)cc2)CC1)Nc1ccccc1 [Example 2, N-Phenyl-2-[1-(4-trifluoromethoxybenzenesulfonyl)piperidin-4-ylideneaminooxy]acetamide]
